Data taken from ChEMBL document CHEMBL5325485, “Design, synthesis and biological evaluation of salicylanilides as novel allosteric inhibitors of human pancreatic lipase” (Bioorg Med Chem, 2023).

The compounds below were run against T1, Pancreatic triacylglycerol lipase (Homo sapiens, UniProt P16233) (assay: Inhibition of Pancreatic lipase (unknown origin) using 4-MUO as fluorescent substrate preincubated for 3 mins followed by substrate addition measured after 20 mins by microplate reader assay). Settings: not given.
T1 sequence (P16233 whole entry): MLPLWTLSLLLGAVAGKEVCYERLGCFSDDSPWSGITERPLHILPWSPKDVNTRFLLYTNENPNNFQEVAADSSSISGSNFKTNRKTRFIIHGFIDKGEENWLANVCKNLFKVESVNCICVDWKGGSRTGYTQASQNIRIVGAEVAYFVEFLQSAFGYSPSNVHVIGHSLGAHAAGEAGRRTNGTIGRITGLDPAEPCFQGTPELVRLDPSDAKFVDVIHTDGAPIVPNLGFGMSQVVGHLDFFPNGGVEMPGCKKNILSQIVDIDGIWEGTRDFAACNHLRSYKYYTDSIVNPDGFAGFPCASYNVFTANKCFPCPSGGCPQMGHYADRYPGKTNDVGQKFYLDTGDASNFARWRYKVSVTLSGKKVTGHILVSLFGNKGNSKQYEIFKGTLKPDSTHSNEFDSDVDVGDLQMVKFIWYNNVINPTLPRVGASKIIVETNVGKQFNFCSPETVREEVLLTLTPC
In the case of `CC1(C)CC[C@]2(C(=O)O)CC[C@]3(C)C(=CC[C@@H]4[C@@]5(C)CCC(=O)C(C)(C)[C@@H]5CC[C@]43C)[C@@H]2C1` [OLEANONIC ACID], the IC50 is reported as 0.49 µM.

What follows are compounds tested against T2, Pancreatic triacylglycerol lipase (Homo sapiens) (UniProt P16233) (assay: Binding affinity to human Pancreatic lipase assessed as Stem-Volmer quenching constant by fluorescence quenching assay based spectrophotometer analysis). Settings: filed as negative allosteric modulator.
T2 sequence (whole entry): T1 sequence (P16233 whole entry)
For `O=C(Nc1ccc(Oc2ccc(Cl)cc2)c(Cl)c1)c1cc(F)cc(F)c1O`, the KSV was 3.61 10^6L/mol.
`O=C(Nc1ccc(Oc2ccc(Cl)cc2)c(Cl)c1)c1cc(Cl)cc(Cl)c1O` was tested, and the KSV was 3.39 10^6L/mol.

The compounds below were run against T1, Pancreatic triacylglycerol lipase (assay: Negative allosteric modulator activity at human Pancreatic lipase using DDAO-ol as fluorescent substrate preincubated for 3 mins followed by substrate addition measured after 20 mins by microplate reader assay). Settings: not given.
With `O=C(Nc1ccc(Oc2ccc(F)cc2)c(F)c1)c1ccccc1O` the IC50 was 11.4 µM.
`COc1ccc(Oc2ccc(NC(=O)c3ccccc3O)cc2)cc1` was tested, and the IC50 was 32.7 µM.
`O=C(Nc1ccc(O)cc1)c1ccccc1O` [OSALMID] was tested, and the IC50 was > 500 µM.
In the case of `O=C(Nc1ccc(Oc2ccc(Cl)cc2)c(Cl)c1)c1cc(F)cc(F)c1O`, the IC50 is reported as 1.86 µM.
With `CC(C)Oc1ccc(Oc2ccc(NC(=O)c3ccccc3O)cc2)cc1` the IC50 was 9.24 µM.
With `CCCOc1ccccc1C(=O)Nc1ccc(Oc2ccc(Cl)cc2)c(Cl)c1` the IC50 was 18.3 µM.
Compound `O=C(Nc1ccc(Oc2ccc(Cl)cc2)c(Cl)c1)c1ccccc1` has an IC50 of 10.5 µM.
For `O=C(Nc1ccc(Oc2ccc(Cl)cc2)c(Cl)c1)c1ccc(Cl)cc1O`, the IC50 was 12.4 µM.
With `O=C(Nc1ccc(Oc2ccc(Cl)cc2)c(Cl)c1)c1ccccc1Br` the IC50 was 11 µM.
`O=C(Nc1ccc(Oc2ccccc2)cc1)c1ccccc1O` gave an IC50 of 19.1 µM.
Work on `CC(C)=CC[C@]12Oc3cc(O)c([C@H]4C=C(C)C[C@H](c5ccc(O)cc5O)[C@H]4C(=O)c4ccc(O)cc4O)c(O)c3C(=O)[C@@]1(O)Oc1cc(O)ccc12` [SANGGENON C] yielded an IC50 of 3.28 µM.
`O=C(Nc1ccc(Oc2ccc(Cl)cc2)cc1)c1ccccc1O` showed an IC50 of 20.4 µM.
In the case of `CCCNc1ccc(C(=O)Nc2ccc(Oc3ccc(Cl)cc3)c(Cl)c2)c(O)c1`, the IC50 is reported as 5.99 µM.
With `O=C(Nc1ccc(Oc2ccc(Cl)cc2)c(Cl)c1)c1cc(I)cc(I)c1O` [RAFOXANIDE] the IC50 was 2.52 µM.
In the case of `O=C(Nc1ccc(Oc2ccc(Cl)cc2)c(Cl)c1)c1ccccc1OC(F)(F)F`, the IC50 is reported as 15.8 µM.
`Cc1ccc(Oc2ccc(NC(=O)c3ccccc3O)cc2)cc1` showed an IC50 of 12 µM.
`O=C(Nc1ccc(Oc2ccc(Cl)cc2)c(Cl)c1)c1ccccc1Cl` gave an IC50 of 15 µM.
For `O=C(Nc1ccc(Oc2ccc(Cl)cc2)c(Cl)c1)c1cc(Br)cc(Br)c1O`, the IC50 was 2.13 µM.
`COc1cccc(O)c1C(=O)Nc1ccc(Oc2ccc(Cl)cc2)c(Cl)c1` showed an IC50 of 26.3 µM.
With `CCCCCCNc1ccc(C(=O)Nc2ccc(Oc3ccc(Cl)cc3)c(Cl)c2)c(O)c1` the IC50 was 12.4 µM.
`O=C(Nc1ccc(Oc2ccc(Cl)cc2)c(Cl)c1)c1ccc(F)cc1O` was tested, and the IC50 was 4.27 µM.
With `O=C(Nc1ccc(Oc2ccc(Cl)cc2)c(Cl)c1)c1cc(Cl)cc(Cl)c1O` the IC50 was 1.63 µM.
`COc1ccc(C(=O)Nc2ccc(Oc3ccc(Cl)cc3)c(Cl)c2)c(O)c1` gave an IC50 of 10 µM.
For `Cc1ccccc1C(=O)Nc1ccc(Oc2ccc(Cl)cc2)c(Cl)c1`, the IC50 was 27.4 µM.
`O=C(Nc1ccc(Oc2ccc(Cl)cc2)c(Cl)c1)c1ccccc1O` was tested, and the IC50 was 6.75 µM.
`O=C(Nc1ccc(Oc2ccccc2)c(Cl)c1)c1ccccc1O` was tested, and the IC50 was 9.96 µM.
`O=C(Nc1ccc(Oc2ccc(Cl)cc2)c(Cl)c1)c1ccccc1F` gave an IC50 of 23.7 µM.
For `Nc1ccc(C(=O)Nc2ccc(Oc3ccc(Cl)cc3)c(Cl)c2)c(O)c1`, the IC50 was 6.27 µM.
`COc1ccccc1C(=O)Nc1ccc(Oc2ccc(Cl)cc2)c(Cl)c1` showed an IC50 of 16.7 µM.

These compounds were tested against T2, Pancreatic triacylglycerol lipase (Homo sapiens) (assay: Binding affinity to human Pancreatic lipase assessed as quenching constant by fluorescence quenching assay based spectrophotometer analysis). Settings: filed as negative allosteric modulator.
`O=C(Nc1ccc(Oc2ccc(Cl)cc2)c(Cl)c1)c1cc(F)cc(F)c1O` was tested, and the Kq was 3.61 10^14L/mol/s.
With `O=C(Nc1ccc(Oc2ccc(Cl)cc2)c(Cl)c1)c1cc(Cl)cc(Cl)c1O` the Kq was 3.39 10^14L/mol/s.

What follows are compounds tested against T1, Pancreatic triacylglycerol lipase (assay: Negative allosteric modulator activity at human Pancreatic lipase assessed as inhibition of PL-mediated DDAO-ol hydrolysis by measuring inhibition constant using DDAO-ol as fluorescent substrate by Lineweaver-Burk plot analysis). Settings: not given.
`O=C(Nc1ccc(Oc2ccc(Cl)cc2)c(Cl)c1)c1cc(F)cc(F)c1O` was tested, and the Ki was 1.67 µM.
`O=C(Nc1ccc(Oc2ccc(Cl)cc2)c(Cl)c1)c1cc(Cl)cc(Cl)c1O` showed a Ki of 1.7 µM.
